Columns and labels:
[1] = biological target: T1, BRD4 bromo domain 1 [BRD4(1)] (Homo sapiens, UniProt O60885); experiment: BRD4/acetylated peptide H4 binding assay (TR-FRET), BRD4 bromo domain 1; settings: inhibition of BRD4(1)/Ac-H4 peptide interaction
T1 construct: N-terminally His6-tagged BRD4(1) (amino acids 67-152); made in house; host or cells: E. coli
In short: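 TR-FRET (665/620 nm ratio) measuring displacement of biotinylated tetra-acetylated H4 peptide from His6-BRD4(1) (aa 67-152, E. coli; typically 10 nM) at pH 7.5. Compound (11 concentrations, 0.1 nM–20 μM, duplicates) was preincubated 10 min at 22°C, then 1 h at 22°C and ≥3 h at 4°C; IC50 from 4-parameter fit normalized to DMSO and no-BRD4 controls.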

[2] = biological target: T2, BRD4 bromo domain 2 [BRD4(2)] (Homo sapiens, UniProt O60885); experiment: BRD4/acetylated peptide H4 binding assay (TR-FRET), BRD4 bromo domain 2; settings: inhibition of BRD4(2)/Ac-H4 peptide interaction
T2 construct: N-terminally His6-tagged BRD4(2) (amino acids 357-445); made in house; host or cells: E. coli
In short: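 IC50 comes from a 4-parameter fit over 0.1 nM–20 μM in duplicate, normalised to DMSO and no-protein controls. TR-FRET (Eu-streptavidin/anti-His-XL665) tracks His-tagged BRD4(2) 357-445 at 100 nM binding Ac-H4 peptide in HEPES pH 7.5 buffer. Incubation was 1 h at 22 °C, then at 4 °C ≥3 h up to overnight.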

Compound	IC50 [1] [nM]	IC50 [2] [nM]
C[C@@H]1C(=O)N(C)c2ccc(Nc3cccc(C(=O)NC4CCC(O)CC4)c3)nc2N1C1CCCCC1 (stereo partly drawn) [Example 86, 3-{[(3R)-4-cyclohexyl-1,3-dimethyl-2-oxo-1,2,3,4-tetrahydropyrido[2,3-b]pyrazin-6-yl]amino}-N-(4-hydroxycyclohexyl)-benzamide]	322	127
COc1c(Nc2ccc3c(n2)N(C2CCOCC2)[C@H](C)C(=O)N3C)cccc1C(=O)N[C@H]1CC[C@H](N2CCN(CC3CC3)CC2)CC1 [Example 91, N-{trans-4-[4-(cyclo-propylmethyl)piperazin-1-yl]cyclohexyl}-3-{[(3R)-1,3-dimethyl-2-oxo-4-(tetrahydro-2H-pyran-4-yl)-1,2,3,4-tetrahydropyrido[2,3-b]pyrazin-6-yl]amino}-2-methoxybenzamide]	439	325
CC(C)N1c2nc(Nc3cccc(C(=O)NC4CCN(C)CC4)c3)ccc2N(C)C(=O)[C@H]1C [Example 94, 3-{[(3R)-4-isopropyl-1,3-dimethyl-2-oxo-1,2,3,4-tetrahydropyrido[2,3-b]pyrazin-6-yl]amino}-N-(1-methylpiperidin-4-yl)benzamide]	467	115
C[C@@H]1C(=O)N(C)c2ccc(Nc3cccc(C(=O)NC4CCN(C)CC4)c3)nc2N1C1CCCCC1 [Example 95, 3-{[(3R)-4-cyclohexyl-1,3-dimethyl-2-oxo-1,2,3,4-tetrahydropyrido[2,3-b]pyrazin-6-yl]amino}-N-(1-methylpiperidin-4-yl)benzamide]	475	277
C[C@@H]1C(=O)N(C)c2ccc(Nc3cccc(C(=O)NC4CCN(C)CC4)c3)nc2N1C1CCC(C)(C)CC1 [Example 96, 3-{[(3R)-4-(4,4-dimethylcyclohexyl)-1,3-dimethyl-2-oxo-1,2,3,4-tetrahydropyrido[2,3-b]pyrazin-6-yl]amino}-N-(1-methylpiperidin-4-yl)benzamide]	501	573
CC(C)N1c2nc(Nc3cccc(C(=O)NCCN(C)C)c3)ccc2N(C)C(=O)[C@H]1C [Example 97, N-[2-(dimethylamino)ethyl]-3-{[(3R)-4-isopropyl-1,3-dimethyl-2-oxo-1,2,3,4-tetrahydropyrido[2,3-b]pyrazin-6-yl]amino}benzamide]	503	179
C[C@@H]1C(=O)N(C)c2ccc(Nc3cccc(C(=O)N[C@H]4CC[C@H](N5CCN(CC6CC6)CC5)CC4)c3)nc2N1C1CCCCC1 [Example 99, 3-{[(3R)-4-cyclohexyl-1,3-dimethyl-2-oxo-1,2,3,4-tetrahydropyrido[2,3-b]pyrazin-6-yl]amino}-N-{trans-4-[4-(cyclopropyl-methyl)piperazin-1-yl]cyclohexyl}benzamide]	551	274
COCCN1c2nc(Nc3cccc(C(=O)N[C@H]4CC[C@H](N5CCN(CC6CC6)CC5)CC4)c3)ccc2N(C)C(=O)[C@H]1C [Example 101, N-{trans-4-[4-(cyclopropylmethyl)piperazin-1-yl]cyclohexyl}-3-{[(3R)-4-(2-methoxyethyl)-1,3-dimethyl-2-oxo-1,2,3,4-tetrahydropyrido-[2,3-b]pyrazin-6-yl]amino}benzamide]	617	195
C[C@@H]1C(=O)N(C)c2ccc(Nc3cccc(C(=O)N[C@H]4CC[C@H](N5CCN(CC6CC6)CC5)CC4)c3)nc2N1C1CCN(C(=O)OC(C)(C)C)CC1 [Example 102, tert-butyl 4-[(3R)-6-{[3-({trans-4-[4-(cyclopropl-methyl)piperazin-1-yl]cyclohexyl}carbamoyl)phenyl]amino}-1,3-dimethyl-2-oxo-2,3-dihydropyrido[2,3-b]pyrazin-4(1H)-yl]piperidine-1-carboxylate]	788	687

More lines, now with the values ahead:

IC50 [1] [nM]	IC50 [2] [nM]	Compound
218	337	COc1ccc(Nc2ccc3c(n2)N(C2CCOCC2)[C@H](C)C(=O)N3C)cc1C(=O)N[C@H]1CC[C@H](N2CCN(CC3CC3)CC2)CC1 [Example 82, N-{trans-4-[4-(cyclo-propylmethyl)piperazin-1-yl]cyclohexyl}-5-{[(3R)-1,3-dimethyl-2-oxo-4-(tetrahydro-2H-pyran-4-yl)-1,2,3,4-tetrahydropyrido[2,3-b]pyrazin-6-yl]amino}-2-methoxybenzamide]
218	227	COc1ccc(Nc2ccc3c(n2)N(C2CCOCC2)[C@H](C)C(=O)N3C)cc1C(=O)N1CCN(C)CC1 [Example 83, (3R)-6-({4-methoxy-3-[(4-methylpiperazin-1-yl)carbonyl]phenyl}-amino)-1,3-dimethyl-4-(tetrahydro-2H-pyran-4-yl)-3,4-dihydropyrido[2,3-b]pyrazin-2(1H)-one]
268	155	C[C@@H]1C(=O)N(C)c2ccc(Nc3cccc(C(=O)NCCN4CCN(C)CC4)c3)nc2N1C1CCCCC1 [Example 84, 3-{[(3R)-4-cyclohexyl-1,3-dimethyl-2-oxo-1,2,3,4-tetrahydropyrido[2,3-b]pyrazin-6-yl]amino}-N-[2-(4-methlpiperazin-1-yl)ethyl]benzamide]
314	189	CC(C)N1CCN(C(=O)c2cccc(Nc3ccc4c(n3)N(C3CCCCC3)[C@H](C)C(=O)N4C)c2)CC1 [Example 85]
399	497	COc1ccc(Nc2ccc3c(n2)N(C2CCOCC2)[C@H](C)C(=O)N3C)cc1C(=O)NC1CCC(N2CCC(F)(F)CC2)CC1 (stereo partly drawn) [Example 89]
430	332	COc1ccc(C(=O)N[C@H]2CC[C@@H](N3CCN(C4CC4)CC3)CC2)cc1Nc1ccc2c(n1)N(C1CCOCC1)[C@H](C)C(=O)N2C [Example 90, N-[cis-4-(4-cyclopropylpiperazin-1-yl)cyclohexyl]-3-{[(3R)-1,3-dimethyl-2-oxo-4-(tetrahydro-2H-pyran-4-yl)-1,2,3,4-tetrahydropyrido[2,3-b]pyrazin-6-yl]amino}-4-methoxybenzamide]
452	579	COc1c(Nc2ccc3c(n2)N(C2CCOCC2)[C@H](C)C(=O)N3C)cccc1C(=O)N1CCN(C)CC1 [Example 92, (3R)-6-({2-methoxy-3-[(4-methylpiperazin-1-yl)carbonyl]phenyl}-amino)-1,3-dimethyl-4-(tetrahydro-2H-pyran-4-yl)-3,4-dihydropyrido[2,3-b]pyrazin-2(1H)-one]
555	462	C[C@@H]1C(=O)N(C)c2ccc(Nc3cccc(C(=O)NC4CCN(C)CC4)c3)nc2N1C1CCN(C(=O)OC(C)(C)C)CC1 [Example 100, tert-butyl 4-[(3R)-1,3-dimethyl-6-({3-[(1-methylpiperidin-4-yl)carbamoyl]phenyl}amino)-2-oxo-2,3-dihydropyrido[2,3-b]pyrazin-4(1H)-yl]piperidine-1-carboxylate]
810	518	COc1c(Nc2ccc3c(n2)N(C2CCOCC2)[C@H](C)C(=O)N3C)cccc1C(=O)NC1CCN(C)CC1 [Example 103, 3-{[(3R)-1,3-dimethyl-2-oxo-4-(tetrahydro-2H-pyran-4-yl)-1,2,3,4-tetrahydropyrido[2,3-b]pyrazin-6-yl]amino}-2-methoxy-N-(1-melhylpiperidin-4-yl)benzamide]
